According to patent US9790211B2, “5-amino-quinoline-8-carboxamide derivatives as 5-HT4 receptor agonists” (SUVEN LIFE SCIENCES LIMITED, priority 2013, dated 2017):

Experiments:
sAPPα = experiment: Estimation of mice brain cortical sAPPα levels (ELISA); assay type: in vivo; details: s.c., 60 minutes post treatment
Description: The control group of mice received sterile water for injection subcutaneously (s.c.). […] Mice were sacrificed 60 minutes after the drug injection by cervical dislocation, the brains were quickly isolated and the cortex was dissected at −20° C. The cortex was immediately kept on a dry ice and weighed before being stored at −80° C. until Enzyme-linked immunosorbent assay (ELISA) was performed. • 1. Brain tissues were thawed and Tris Buffer Saline containing protease inhibitors (TBS, 4 times by volume) added (0.8 mL/200 mg tissues). • 2. Brain tissue samples were homogenized using glass-Teflon homogenizer at 10 strokes. The resulting homogenates were centrifuged at 15,000 rpm at 4° C. for 60 minutes. • 3. The supernatant was discarded and to the precipitate, 4 times volume (0.8 mL/200 mg tissues) of TBS was added. Again homogenized followed by centrifugation at 15,000 rpm 4° C. for 30 minutes. • 4. From the above centrifuged mixture the supernatant was discarded and 10 times volume of 6M Guanidine-HCl in 50 mM Tris buffer pH: 7.6 (500 μL/50 mg tissues) was added. The resulting solution was sonicated for 5 seconds, 4 times. • 5. Resulting mixture was incubated at the RT for 30 minutes, followed by centrifugation at 15,000 rpm, 4° C. for 30 minutes. From this 5 μL of supernatant solution was taken and diluted with 155 μL of EIA buffer (dilution factor 32). Measurement of sAPPα by ELISA Kit: To investigate the role of an acute treatment of test compound on sAPPα levels, we measured the expression of this protein in homogenates from the cortex of treated and untreated mice by ELISA assay. The entire procedure was followed as described in the ELISA kit manual (Mouse/Rat sAPPα ELISA, Catalog Number: JP27415, […], Hamburg, Germany). Statistical analyses were performed using the Graph Pad Prism (Version 4). Data are Mean±SD of sAPPa levels expressed as percentage of control values (mice which received water for injection). Values were compared between the different groups by using unpaired t test. The significance level was set at *p<0.05; […]; ***<0.001.

Aβ1-40 = experiment: Effect on CSF Aβ1-40 level (ELISA); assay type: in vivo, Male Sprague Dawley Rat; details: p.o., at two hour
Description: (§1) The control group of male rats received a vehicle (reagent grade water) per orally by gavage at a dose volume of 10 mL/kg. The treated groups (6 rat per group) received a single dose of test compound (different doses) or DAPT (50.0 mg/kg). Two hour post dose of vehicle or test compounds, rats were anesthetized with isoflurane and CSF was collected from Cisterna magna using 0.5 mL syringes by utilizing stereotaxic frame. The CSF samples were frozen in liquid nitrogen and stored at −80° C. until ELISA was performed.
(§2) • 1. CSF samples were thawed to RT and diluted with Tris Buffer Saline containing protease inhibitors at 1:10 ratio 115:150 μL (15 μL CSI+135 μL TBS. • 2. To this diluted CSF samples 0.15 mL of EIA buffer (1:1 ratio) was added. These diluted samples were subjected for Aβ1-40 level measurement by ELISA. Measurement of Aβ1-40 by ELISA Kit:
To investigate the role of an acute treatment of test compound on Aβ1-40 levels, expression of this protein in CSF was measured in treated and untreated rat by ELISA assay. The entire procedure was followed as per ELISA kit manual (Mouse/Rat Amyloid-Aβ1-40 ELISA, Cat No: 27721, IBL International, Hamburg, Germany).
(§3) Statistical analysis was performed using the Graph Pad Prism (Version 4). Data are Mean±SD of Aβ1-40 levels expressed as percentage of control values (rat which received regent grade water). Values were compared between the different groups by using unpaired t test. The significance level was set at *p<0.05; **p<0.01; ***p<0.001.

Aβ1-42 = experiment: Effect on CSF Aβ1-42 level (ELISA); assay type: in vivo, Male Sprague Dawley Rat; details: p.o., two hour post treatment
Description: as §1, with “by puncturing” for “from”, “frame.” for “frame. The”
as §2, with “[15:150” for “115:150”, “CSF+ 135” for “CSI+135”, “TBS],” for “TBS.”, “Aβ1-42” for “Aβ1-40”
To investigate the role of an acute treatment of test compound on Aβ1-42 levels, expression of this protein was measured in CSF of treated and untreated rat by ELISA assay. The entire procedure was followed as described in ELISA kit manual (Mouse/Rat […], Cat No: 27720, IBL International, Hamburg, Germany).
as §3, with “analyses were” for “analysis was”, “Aβ1-42” for “Aβ1-40”, “by” for “by using”

SMILES	increase in the mice brain cortical sAPPα levels (sAPPα; 0.3 mg/kg) [%]	increase in the mice brain cortical sAPPα levels (sAPPα; 1.0 mg/kg) [%]	increase in the mice brain cortical sAPPα levels (sAPPα; 3.0 mg/kg) [%]	increase in the mice brain cortical sAPPα levels (sAPPα; 10.0 mg/kg) [%]	decrease in the rat CSF Aβ1-40 levels (Aβ1-40; 0.03 mg/kg) [%]	decrease in the rat CSF Aβ1-40 levels (Aβ1-40; 0.1 mg/kg) [%]	decrease in the rat CSF Aβ1-40 levels (Aβ1-40; 0.3 mg/kg) [%]	decrease in the rat CSF Aβ1-40 levels (Aβ1-40; 1.0 mg/kg) [%]	decrease in the rat CSF Aβ1-40 levels (Aβ1-40; 3.0 mg/kg) [%]	decrease in the rat CSF Aβ1-42 levels (Aβ1-42; 0.03 mg/kg) [%]	decrease in the rat CSF Aβ1-42 levels (Aβ1-42; 0.1 mg/kg) [%]	decrease in the rat CSF Aβ1-42 levels (Aβ1-42; 0.3 mg/kg) [%]	decrease in the rat CSF Aβ1-42 levels (Aβ1-42; 1.0 mg/kg) [%]	decrease in the rat CSF Aβ1-42 levels (Aβ1-42; 3.0 mg/kg) [%]
Nc1c(Cl)cc(C(=O)NCC2CCN(CC3CCOCC3)CC2)c2ncccc12.O=C(O)C(O)C(O)C(=O)O [Example 13, 5-Amino-6-chloro-N-{[1-(tetrahydro-2H-pyran-4-ylmethyl)-4-piperidinyl]methyl} quinoline-8-carboxamide L(+)-tartarate]	39	41	46	66										
Nc1c(Cl)cc(C(=O)NCC2CCN(CC3CCOCC3)CC2)c2ncccc12.O=C(O)/C=C/C(=O)O [Example 1, 5-Amino-6-chloro-N-{[1-(tetrahydro-2H-pyran-4-ylmethyl)-4-piperidinyl]methyl}quinoline-8-carboxamide hemifumarate]					27	24	40	22	29	25	21	35	22	26
